Measurements reported in patent US10709711B2 (G1 Therapeutics, Inc., priority 2013, dated 2020).

How the values were obtained:
[1] = system: SupT1 cells (human T-cell lymphoblastic leukemia); test: Inhibition of cellular proliferation, SupT1 cells (CellTiter-Glo); type: cell-based; settings: SUP-T1, 96 h, cell viability after four days, nine point dilution series 10 uM to 1 nM
Protocol: (§1) The SupT1 cells were seeded in Costar (Tewksbury, Mass.) 3093 96 well tissue culture treated white walled/clear bottom plates. A nine point dose response dilution series from 10 uM to 1 nM was performed and cell viability was determined after four days as indicated using the CellTiter-Glo® assay (CTG; Promega, Madison, Wis., United States of America) following the manufacturer's recommendations. Plates were read on a BioTek (Winooski, Vt.) Syngergy2 multi-mode plate reader. The Relative Light Units (RLU) were plotted as a result of variable molar concentration and data was analyzed using Graphpad (LaJolla, Calif.) Prism 5 statistical software to determine the IC50 for each compound.
(§2) The compounds listed in Table 1 were tested for the inhibition of cellular proliferation using SupT1 (human T-cell lymphoblastic leukemia) and Daudi (human B-lymphoblastoid cell from Burkitt's Lymphoma patient).

[2] = system: Daudi (human B-lymphoblastoid cell from Burkitt's Lymphoma patient); test: Inhibition of cellular proliferation, Daudi cells (CellTiter-Glo); type: cell-based; settings: EC50 measured as illustrated in Example 150 (CellTiter-Glo)
Protocol: as §1, §2

Structure (SMILES)	EC50 [1] [nM]	EC50 [2] [nM]
CC(C)C[C@@H]1CNC(=O)c2cc3cnc(Nc4ccc(N5CCNCC5)cn4)nc3n21 [WWW]	264	1270
CC(C)C[C@@H]1CNC(=O)c2cc3cnc(Nc4ccc(N5CCN(C)CC5)cn4)nc3n21 [XXX]	270	1170
O=C1NCC2(CCCCC2)n2c1cc1cnc(Nc3ccc(N4CCC(N5CCC(C(F)(F)F)CC5)CC4)cn3)nc12 [X]	36	318
O=C1NCC2(CCCCC2)n2c1cc1cnc(Nc3ccc(C(=O)N4CCNCC4)cn3)nc12 [Y]	85	548

Next, values leading:

EC50 [1] [nM]	EC50 [2] [nM]	Structure (SMILES)
77	1690	O=C1NCC2(CCCC2)n2c1cc1cnc(Nc3ccc(N4CCC(N5CCOCC5)CC4)cn3)nc12 [WW]
57	731	CC1CN(c2ccc(Nc3ncc4cc5n(c4n3)C3(CCCCC3)CNC5=O)nc2)CCN1CC(C)(C)O (centres unmarked) [W]
94	499	C[C@H](O)CN1CCN(c2ccc(Nc3ncc4cc5n(c4n3)C3(CCCC3)CNC5=O)nc2)C[C@H]1C [XX]
97	356	CN(C)C1CCN(c2ccc(Nc3ncc4cc5n(c4n3)C3(CCCC3)CNC5=O)nc2)CC1 [YY]
272	584	CN1CCN(c2ccc(Nc3ncc4cc5n(c4n3)C3(CCCC3)CNC5=O)nc2)CC1 [ZZ]
87	359	C[C@H](O)CN1[C@H](C)CN(c2ccc(Nc3ncc4cc5n(c4n3)C3(CCCCC3)CNC5=O)nc2)C[C@@H]1C [Z]
